Source: US5129937A, “Pyridyloxypyrimidine derivatives, preparation process thereof, and herbicidal compositions containing the same as active ingredients” (Mitsui Toatsu Chemicals Incorporated, priority 1989, dated 1992)

Experiments:
[1] = tested on: ALS (acetolactate synthase); test: ALS (Acetolactate Synthase) Inhibition Test, barnyardgrass enzyme; assay type: biochemical; conditions: enzymoreaction inhibition rate at 10 ppm (5 μg/0.5 ml)
Experimental: To determine the selectivity in enzyme level between crops and weeds, an ALS inhibition test was conducted using pea as a representative of broadleaf crops and barnyardgrass as a representative of gramineous weeds.
After seeds of pea and barnyardgrass were allowed to germinate at 25° C. for 8-14 days in a dark place, partially-purified suspensions (Suspensions A) of acetolactate syntase were separately obtained from seedlings in accordance with the method described in the literature, Plant Physiology, 75, 827-831. In a test tube, […], followed by the addition of 0.15 ml of a 20 mM K2 HPO4 solution and 0.25 ml of a reaction substrate medium which consisted of 40 mM of K2 HPO4, 40 mM of sodium pyruvate, 1 mM of TPP, 1 mM of MgCl2 and 20 μM of FAD so that 0.4 ml of a reaction solution (Solution B) was prepared. Added to 0.4 ml of Solution B was 0.1 ml of Suspension A. After the resultant mixture was shaken for 1 hour in a thermostat water bath controlled at 30° C., 50 μl of 6N sulfuric acid were added to terminate the reaction.
Next, the reaction-terminated liquid mixture was transferred into a thermostat water bath controlled at 60° C. and was heated for 15 minutes. Thereafter, 0.5 ml of a 0.5% creatine solution and 0.5 ml of a 5% alkaline α-naphthol solution were added, and the resultant mixture was maintained at 60° C. for 15 minutes. As a result, the test solution developed a pink-red color. After the above operation, the absorbance of the test solution at 525 nm was measured by a spectrophotometer (Absorbance 1 of Test Compound).
On the other hand, the absorbance (Absorbance 2 of Blank) of a solution obtained by subjecting a portion of Solution B, said portion being free of the test compound, to the above operation and the absorbance (Absorbance 3 of sulfuric acid terminated) of another solution obtained by subjecting another portion of Solution B, said portion containing 50 μl of 6N sulfuric acid as a test compound, were measured at the same time. […] [formula]

[2] = tested on: Barnyardgrass (Echinochloa crus-galli); test: Upland Foliar Application Test; assay type: in vivo; conditions: 30 g ai/a; foliar application at 2-3 leaf stage, emulsion; observed on the 30th day
Source text: (§1) Resin-made 1/10000-are pots were filled with the soil of an upland field. Redroot pigweed, morningglory (Ipomoea pupurea), common lambsquarters, foxtail meadow, johnsongrass, barnyardgrass, green foxtail, large crabgrass, soybean, corn and cotton were separately seeded and were allowed to germinate in a green house. When each plant grew to the stage of 2-3 leaves, an emulsion formulated from a predetermined amount of each test compound in a similar manner to the method described in Formulation Example 11 was diluted with water and then sprayed at a predetermined application rate by means of a pressure-operated ULV (ultra low volume) sprayer. The application rate was controlled at 5 l per are. Influence to the crops and weeds were observed on the 30th day after the spray of the herbicides. The results are shown in Table 4 in which the degree of damages of each test plant and the degree of injury to each crop are shown in a similar manner to Test 2.

Common lambsquarters = test: Upland Foliar Application Test; assay type: in vivo; conditions: 30 g ai/a; foliar application at 2-3 leaf stage, emulsion; observed on the 30th day
Source text: as §1

[3] = tested on: Crabgrass (Digitaria adsendens); test: Upland Foliar Application Test; assay type: in vivo; conditions: 30 g ai/a; foliar application at 2-3 leaf stage, emulsion; observed on the 30th day
Source text: as §1

[4] = tested on: Foxtail (Setaria viridis); test: Upland Foliar Application Test; assay type: in vivo; conditions: 30 g ai/a; foliar application at 2-3 leaf stage, emulsion; observed on the 30th day
Source text: as §1

Foxtail meadow = test: Upland Foliar Application Test; assay type: in vivo; conditions: 30 g ai/a; foliar application at 2-3 leaf stage, emulsion; observed on the 30th day
Source text: as §1

Johnsongrass = test: Upland Foliar Application Test; assay type: in vivo; conditions: 30 g ai/a; foliar application at 2-3 leaf stage, emulsion; observed on the 30th day
Source text: as §1

Redroot Pigweed = test: Upland Foliar Application Test; assay type: in vivo; conditions: 30 g ai/a; foliar application at 2-3 leaf stage, emulsion; observed on the 30th day
Source text: as §1

Corn (Zea maize) = test: Upland Foliar Application Test, crop injury; assay type: in vivo; conditions: 30 g ai/a; foliar application at 2-3 leaf stage, emulsion; observed on the 30th day
Source text: as §1

[5] = tested on: Cotton (Gossypium indicum); test: Upland Foliar Application Test, crop injury; assay type: in vivo; conditions: 30 g ai/a; foliar application at 2-3 leaf stage, emulsion; observed on the 30th day
Source text: as §1

Soybean (Glycine max) = test: Upland Foliar Application Test, crop injury; assay type: in vivo; conditions: 30 g ai/a; foliar application at 2-3 leaf stage, emulsion; observed on the 30th day
Source text: as §1

[6] = tested on: Arrowhead sp. (Sagittaria pygmaea); test: Submerged Soil Treatment Test (Pre-Emergence Treatment); assay type: in vivo; conditions: 30 g ai/a, granule, observed 30 days later
Experimental: (§2) 1/5000-are Wagner pots were filled with soil. Seeds or tubers of barnyardgrass, bulrush and Sagittaria pygmaea were seeded or planted under submerged condition. Two pairs of rice seedlings (2-3 leaf stage), which had been reared in advance, were transplanted to each pot and were allowed to germinate in a green house. Each pair consisted of two rice seedlings. On day later (before emergence of weeds), each pot was treated with a granule which had been prepared by processing a predetermined amount of the test composition in accordance with a similar method to the method described in Formulation Example 9. The state of emergence of weeds and the state of injury of rice were observed 30 days later. In the table, the degrees of damages of the test plants and the degrees of injury of rice are shown in a similar manner to Example 2.

[7] = tested on: Barnyardgrass (Echinochloa crus-galli); test: as above; assay type: in vivo; conditions: 30 g ai/a, granule, observed 30 days later
Experimental: as §2

[8] = tested on: Bulrush (Scirpus juncoides); test: as above; assay type: in vivo; conditions: 30 g ai/a, granule, observed 30 days later
Experimental: as §2

CCCCOC(OCCCC)c1ncccc1Oc1nc(OC)cc(OC)n1 [Compound No. 4]
94%: Inhibition rate (%) Barnyardgrass [1]
5 (0-5 (Death)): Herbicidal effects Barnyardgrass (Echinochloa crus-galli) [2] | Herbicidal effects Common lambquarters (Common lambsquarters) | Herbicidal effects Crabgrass (Digitaria adsendens) [3] | Herbicidal effects Foxtail (Setaria viridis) [4] | Herbicidal effects Foxtail meadow (Foxtail meadow) | Herbicidal effects Johnsongrass (Johnsongrass) | Herbicidal effects Redroot Pigweed (Redroot Pigweed) | Herbicidal effects Arrowhead sp. (Sagittaria pygmaea) [6] | Herbicidal effects Barnyardgrass (Echinochloa crus-galli) [7] | Herbicidal effects Bulrush (Scirpus juncoides) [8]
0 (91-100 (No damages)): Crop injury Corn (Zea maize) (Corn (Zea maize)) | Crop injury Cotton (Gossypium indicum) [5] | Crop injury Soybean (Glycine max) (Soybean (Glycine max))

COc1cc(OC)nc(Oc2cccnc2C(OC)OC(C)C)n1 (centres unmarked) [Compound No. 5, 3-(4.6-dimethoxy-2-pyrimidinyloxy)-2-pyridinecarboxaldehyde isopropylmethylacetal]
0 (91-100 (No damages)): Crop injury Corn (Zea maize) (Corn (Zea maize)) | Crop injury Cotton (Gossypium indicum) [5] | Crop injury Soybean (Glycine max) (Soybean (Glycine max))
4 (6-10 (Severe damages)): Herbicidal effects Common lambquarters (Common lambsquarters) | Herbicidal effects Crabgrass (Digitaria adsendens) [3]
100%: Inhibition rate (%) Barnyardgrass [1]
5 (0-5 (Death)): Herbicidal effects Barnyardgrass (Echinochloa crus-galli) [2] | Herbicidal effects Foxtail (Setaria viridis) [4] | Herbicidal effects Foxtail meadow (Foxtail meadow) | Herbicidal effects Johnsongrass (Johnsongrass) | Herbicidal effects Redroot Pigweed (Redroot Pigweed) | Herbicidal effects Arrowhead sp. (Sagittaria pygmaea) [6] | Herbicidal effects Barnyardgrass (Echinochloa crus-galli) [7] | Herbicidal effects Bulrush (Scirpus juncoides) [8]

CCOC(OCC)c1ncccc1Oc1nc(OC)cc(OC)n1 [Compound No. 3, 3-(4,6-dimethoxy-2-pyrimidinyloxy)-2-pyridinecarboxaldehyde diethylacetal]
5 (0-5 (Death)): Herbicidal effects Barnyardgrass (Echinochloa crus-galli) [2] | Herbicidal effects Common lambquarters (Common lambsquarters) | Herbicidal effects Crabgrass (Digitaria adsendens) [3] | Herbicidal effects Foxtail (Setaria viridis) [4] | Herbicidal effects Foxtail meadow (Foxtail meadow) | Herbicidal effects Johnsongrass (Johnsongrass) | Herbicidal effects Redroot Pigweed (Redroot Pigweed) | Herbicidal effects Arrowhead sp. (Sagittaria pygmaea) [6] | Herbicidal effects Barnyardgrass (Echinochloa crus-galli) [7] | Herbicidal effects Bulrush (Scirpus juncoides) [8]
0 (91-100 (No damages)): Crop injury Corn (Zea maize) (Corn (Zea maize)) | Crop injury Cotton (Gossypium indicum) [5] | Crop injury Soybean (Glycine max) (Soybean (Glycine max))
84%: Inhibition rate (%) Barnyardgrass [1]

COc1cc(OC)nc(Oc2cccnc2C=O)n1 [Compound No. 1, 4,6-dimethoxy-2-(2-formyl-3-pyridyloxy)pyrimidine]
1 (71-90 (Slight damages)): Crop injury Soybean (Glycine max) (Soybean (Glycine max))
5 (0-5 (Death)): Herbicidal effects Barnyardgrass (Echinochloa crus-galli) [2] | Herbicidal effects Common lambquarters (Common lambsquarters) | Herbicidal effects Foxtail (Setaria viridis) [4] | Herbicidal effects Foxtail meadow (Foxtail meadow) | Herbicidal effects Johnsongrass (Johnsongrass) | Herbicidal effects Redroot Pigweed (Redroot Pigweed)
100%: Inhibition rate (%) Barnyardgrass [1]
4 (6-10 (Severe damages)): Herbicidal effects Crabgrass (Digitaria adsendens) [3] | Herbicidal effects Arrowhead sp. (Sagittaria pygmaea) [6] | Herbicidal effects Barnyardgrass (Echinochloa crus-galli) [7] | Herbicidal effects Bulrush (Scirpus juncoides) [8]
0 (91-100 (No damages)): Crop injury Corn (Zea maize) (Corn (Zea maize)) | Crop injury Cotton (Gossypium indicum) [5]

CCOC(=O)c1ncccc1Oc1nc(OC)cc(OC)n1 [A, reference compound]
5%: Inhibition rate (%) Barnyardgrass [1]
5 (0-5 (Death)): Herbicidal effects Barnyardgrass (Echinochloa crus-galli) [2] | Herbicidal effects Foxtail (Setaria viridis) [4] | Herbicidal effects Foxtail meadow (Foxtail meadow) | Herbicidal effects Johnsongrass (Johnsongrass) | Crop injury Corn (Zea maize) (Corn (Zea maize)) | Crop injury Cotton (Gossypium indicum) [5] | Crop injury Soybean (Glycine max) (Soybean (Glycine max)) | Herbicidal effects Barnyardgrass (Echinochloa crus-galli) [7] | Herbicidal effects Bulrush (Scirpus juncoides) [8]
4 (6-10 (Severe damages)): Herbicidal effects Common lambquarters (Common lambsquarters) | Herbicidal effects Crabgrass (Digitaria adsendens) [3] | Herbicidal effects Redroot Pigweed (Redroot Pigweed) | Herbicidal effects Arrowhead sp. (Sagittaria pygmaea) [6]

COc1cc(OC)nc(Oc2cccnc2C2OCC(C)O2)n1 (centres unmarked) [Compound No. 7]
0 (91-100 (No damages)): Crop injury Corn (Zea maize) (Corn (Zea maize)) | Crop injury Cotton (Gossypium indicum) [5] | Crop injury Soybean (Glycine max) (Soybean (Glycine max))
4 (6-10 (Severe damages)): Herbicidal effects Common lambquarters (Common lambsquarters) | Herbicidal effects Crabgrass (Digitaria adsendens) [3] | Herbicidal effects Arrowhead sp. (Sagittaria pygmaea) [6]
5 (0-5 (Death)): Herbicidal effects Barnyardgrass (Echinochloa crus-galli) [2] | Herbicidal effects Foxtail (Setaria viridis) [4] | Herbicidal effects Foxtail meadow (Foxtail meadow) | Herbicidal effects Johnsongrass (Johnsongrass) | Herbicidal effects Redroot Pigweed (Redroot Pigweed) | Herbicidal effects Barnyardgrass (Echinochloa crus-galli) [7] | Herbicidal effects Bulrush (Scirpus juncoides) [8]
87%: Inhibition rate (%) Barnyardgrass [1]

COc1cc(OC)nc(Oc2ccccc2C=O)n1 [B, reference compound]
5 (0-5 (Death)): Crop injury Corn (Zea maize) (Corn (Zea maize)) | Crop injury Cotton (Gossypium indicum) [5] | Crop injury Soybean (Glycine max) (Soybean (Glycine max)) | Herbicidal effects Arrowhead sp. (Sagittaria pygmaea) [6]
98%: Inhibition rate (%) Barnyardgrass [1]
3 (11-40 (Medium damages)): Herbicidal effects Common lambquarters (Common lambsquarters) | Herbicidal effects Redroot Pigweed (Redroot Pigweed) | Herbicidal effects Barnyardgrass (Echinochloa crus-galli) [7] | Herbicidal effects Bulrush (Scirpus juncoides) [8]
4 (6-10 (Severe damages)): Herbicidal effects Barnyardgrass (Echinochloa crus-galli) [2] | Herbicidal effects Crabgrass (Digitaria adsendens) [3] | Herbicidal effects Foxtail (Setaria viridis) [4] | Herbicidal effects Foxtail meadow (Foxtail meadow) | Herbicidal effects Johnsongrass (Johnsongrass)
